Assay results taken from paper PMC8151276, “An Integrated Approach toward NanoBRET Tracers for Analysis of GPCR Ligand Engagement” (Molecules, 2021).

Target: T1, ADRA1B (Homo sapiens, UniProt P35368)
T1 construct: purchased Promega (in-house HiBiT-GPCR construct library, NanoBRET)
T1 sequence (P35368 1-520): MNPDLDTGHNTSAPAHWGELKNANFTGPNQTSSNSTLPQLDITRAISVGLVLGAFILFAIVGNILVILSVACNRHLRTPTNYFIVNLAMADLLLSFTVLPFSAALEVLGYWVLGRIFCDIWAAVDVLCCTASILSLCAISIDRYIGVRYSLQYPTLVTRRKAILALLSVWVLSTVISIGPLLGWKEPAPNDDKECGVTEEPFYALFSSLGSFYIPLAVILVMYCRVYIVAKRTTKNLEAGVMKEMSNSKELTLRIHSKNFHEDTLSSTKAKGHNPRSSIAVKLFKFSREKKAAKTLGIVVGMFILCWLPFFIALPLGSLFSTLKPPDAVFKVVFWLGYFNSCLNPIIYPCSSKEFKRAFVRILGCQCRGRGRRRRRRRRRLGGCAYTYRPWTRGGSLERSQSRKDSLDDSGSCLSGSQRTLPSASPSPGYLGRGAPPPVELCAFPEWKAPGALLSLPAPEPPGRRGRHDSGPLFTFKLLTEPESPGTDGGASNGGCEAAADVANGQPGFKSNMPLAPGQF
Experiment: NanoBRET screen HiBiT-ADRA1B in HEK293
Assay type: binding
Method: Each tracer candidate was screened across the entire library of HiBiT-GPCR constructs using NanoBRET as the detection modality. As depicted in Figure 4A, the specificity of interactions was evaluated through decrease in BRET due to competitive displacement of a bound tracer by excess parental compound. Each tracer was analyzed for binding to each HiBiT-GPCR fusion in the absence and in the presence of competing parental compound. Briefly, HEK293 cells were transfected with HiBiT-GPCR constructs diluted into promoterless DNA to reduce expression and maximize translocation to the cell surface. Each tracer candidate was then screened at concentrations of 1 μM and 0.1 μM across cells expressing these fusions. Cells were treated for 1.5 h with tracer either alone or in the presence of 20 μM competing parental compound (i.e., control). BRET was measured upon addition of purified LgBiT and subsequent complementation with HiBiT genetically fused to a GPCR. The specificity of interactions was assessed through a decrease in BRET signal due to competitive displacement of the bound tracer. To further gauge the robustness of these interactions, the fold response over the control (i.e., BRETtracer/BRETcontrol) was calculated. We chose a 1.5-fold response, which translates to ≥7-fold signal over noise as the minimal threshold required to score an interaction as positive.
HiBiT-GPCR DNA constructs were diluted in 10 mM Tris pH 8 to a final concentration of 0.01 μg/μL, arrayed in 96-well plates and stored at −20 °C. For transfection, HEK293 cells were suspended in Opti-MEM (without phenol red) supplemented with 2% fetal bovine serum (Seradigm) and 100 units/mL penicillin–streptomycin (Gibco) at a final concentration of 220,000 cells/mL and dispensed into white 96-well plates at 90 μL/well. Subsequent transfections and screens were carried using an Agilent Bravo Automated Liquid Handling Platform. First, the 96-well HiBiT DNA arrays were diluted 25-fold in Opti-MEM (without serum or phenol red) to a final concentration of 0.0004 μg/μL and 20 μL of the diluted DNAs were transferred into new 96-well plates. Next, promoterless carrier DNA (1 μg/μL) was diluted 25-fold (0.04 μg/μL) and then dispensed into the diluted arrays at 20 μL/well. Following brief mixing, Viafect transfection reagent (Promega) diluted 16-fold into Opti-MEM was dispensed into the plates at 40 μL/well. After mixing by pipetting, plates were incubated for 10 min on the pipetting station deck. The DNA-transfection reagent complexes were then added to plates containing cells. To facilitate the screen, 10 μL of DNA-transfection reagent complexes were added in duplicates to the top 4 and bottom 4 rows, resulting in two identical 48-well arrays per plate. Plates with transfected cells were incubated for 18–20 h at 37 °C/5% CO2. A screen of each tracer across the entire library using two different concentrations requires duplicate plates of transfected cells. Depending on the number of tracers being screened, transfections can be scaled up using the same ratios. The next day, for each tracer, four 20× screening solutions in tracer dilution buffer (Promega) were prepared: two duplicates at final concentration of 20 μM and two duplicates at a final concentration of 2 μM. […] The four resulting solutions were diluted 4-fold in Opti-MEM without serum or phenol red to generate 5× solutions (5 µM and 0.5 µM tracer +/− 100 μM competing compound). To screen the library, a BioTek MultiFlo FX liquid dispenser was used to dispense 22.5 µL of tracer solution to the top 4 rows and 22.5 µL tracer + competing compound solution to the 4 bottom rows. Plates were briefly mixed on an orbital shaker and incubated for 1.5 h at room temperature. […] Plates were briefly mixed on an orbital shaker and incubated for 15 min to allow complementation.

Compound	NanoBRET Fold Response (ADRA1B, tracer 0.1μM)	NanoBRET Fold Response (ADRA1B, tracer 1μM)	also measured
O=C(CCc1ccc2n1[B-](F)(F)[N+]1=C(c3ccc[nH]3)C=CC1=C2)NCc1ccc(C(=O)NCCOCCC(=O)N[C@@H]2CC[C@@]3(O)[C@H]4Cc5ccc(O)c6c5[C@@]3(CCN4CC3CC3)[C@H]2O6)cc1 [Naltrexone-3-NB590]	0.53	0.79	
O=C(CCOCCOCCOCCOCCNC(=O)CCc1ccc2n1[B-](F)(F)[N+]1=C(c3ccc[nH]3)C=CC1=C2)NCCCN1CCN(C2=Nc3cc(Cl)ccc3Nc3ccccc32)CC1 [Clozapine-a-2-NB590]			NanoBRET Fold Response (ADRA1B, 0.1μM tracer): 1.65; NanoBRET Fold Response (ADRA1B, 1μM tracer): 1.52
CCOC(=O)c1cc(C#N)c(N2CCC(C(=O)NS(=O)(=O)Cc3ccccc3/C=C/C(=O)NCCNC(=O)CCc3ccc4n3[B-](F)(F)[N+]3=C(c5ccc[nH]5)C=CC3=C4)CC2)nc1C [AZD1283-1-NB590]			NanoBRET Fold Response (ADRA1B, 0.1μM): 1.08; NanoBRET Fold Response (ADRA1B, 1μM): 1.06
COc1ccc2[nH]c(-c3ccc(CNC(=O)CCOCCOCCOCCOCCNC(=O)CCc4ccc5n4[B-](F)(F)[N+]4=C(c6ccc[nH]6)C=CC4=C5)cc3)c(CCNC(C)=O)c2n1 [AzomelatoninICO9-2-NB590]			NanoBRET Fold Response (0.1μM tracer): 0.91; NanoBRET Fold Response (1μM tracer): 0.97
CCCn1c(=O)c2[nH]c(-c3ccc(OCC(=O)NCCNC(=O)CCOCCNC(=O)c4ccc(CNC(=O)CCc5ccc6n5[B-](F)(F)[N+]5=C(c7ccc[nH]7)C=CC5=C6)cc4)cc3)nc2n(CCC)c1=O [XAC-3-NB590]	1.05	1.17	
COc1ccccc1N1CCN(CCCCN2C(=O)c3ccc(CNC(=O)CCOCCNC(=O)c4ccc(CNC(=O)CCc5ccc6n5[B-](F)(F)[N+]5=C(c7ccc[nH]7)C=CC5=C6)cc4)cc3C2=O)CC1 [NAN-190-3-NB590]	1.70	1.72	
CN(CCC=C1c2ccccc2CCc2ccccc21)C(=O)CCOCCOCCOCCOCCNC(=O)CCc1ccc2n1[B-](F)(F)[N+]1=C(c3ccc[nH]3)C=CC1=C2 [Amitriptyline-e-2-NB590]			NanoBRET Fold Response (tracer at 1μM): 1.04
O=C(CCc1ccc2n1[B-](F)(F)[N+]1=C(c3ccc[nH]3)C=CC1=C2)NCc1ccc(C(=O)NCCOCCOCCNCC(O)COc2cccc3ccccc23)cc1 (stereo not shown) [Propranolol-3-NB590]			NanoBRET Fold Response (ADRA1B, 0.1μM): 1.14; NanoBRET Fold Response (ADRA1B, 1μM): 1.10
COc1ccc2c(n1)c(CCNC(C)=O)cn2CCNC(=O)CCc1ccc2n1[B-](F)(F)[N+]1=C(c3ccc[nH]3)C=CC1=C2 [Azamelatonin-1-NB590]			NanoBRET Fold Response (0.1μM tracer): 0.97; NanoBRET Fold Response (1μM tracer): 0.88
O=C(CCOCCOCCOCCOCCNC(=O)CCc1ccc2n1[B-](F)(F)[N+]1=C(c3ccc[nH]3)C=CC1=C2)NCCCN1CCN(C2=Nc3ccccc3Oc3ccc(Cl)cc32)CC1 [Loxapine-a-2-NB590]	1.78	1.54	
N#CN/C(=N\CCNC(=O)c1ccc(N)cc1)NCCCOc1cccc(CN2CCCCC2)c1 [Aminopotentidine (unmodified)]			NanoBRET Fold Response (ADRA1B, other tracers/Aminopotentidine (unmodified), 0.1μM): 1.03; NanoBRET Fold Response (ADRA1B, other tracers/Aminopotentidine (unmodified), 1μM): 0.99
COc1ccccc1N1CCN(CCCCN2C(=O)c3ccc(CNC(=O)CCOCCOCCOCCOCCNC(=O)CCc4ccc5n4[B-](F)(F)[N+]4=C(c6ccc[nH]6)C=CC4=C5)cc3C2=O)CC1 [NAN-190-2-NB590]	1.80	1.59	
CC(C)N(CC[C@H](c1ccccc1)c1cc(CCNC(=O)c2ccc(CNC(=O)CCc3ccc4n3[B-](F)(F)[N+]3=C(c5ccc[nH]5)C=CC3=C4)cc2)ccc1O)C(C)C [Tolterodine-BZ-NB590]	1.17	1.05	
O=C(CCc1ccc2n1[B-](F)(F)[N+]1=C(c3ccc[nH]3)C=CC1=C2)NCCOCCOCCNC(=O)OCCOCCN1CCN(C2=Nc3ccccc3Sc3ccccc32)CC1 [Quetiapine-a-2-NB590]	1.52	1.59	
CC(C)N(CC[C@H](c1ccccc1)c1cc(CCNC(=O)CCOCCOCCOCCOCCNC(=O)CCc2ccc3n2[B-](F)(F)[N+]2=C(c4ccc[nH]4)C=CC2=C3)ccc1O)C(C)C [Tolterodine-2-NB590]	1.16	1.06	
CN(C)CCC=C1c2ccccc2CCc2ccc(C(=O)NCCNC(=O)CCOCCOCCOCCOCCNC(=O)CCc3ccc4n3[B-](F)(F)[N+]3=C(c5ccc[nH]5)C=CC3=C4)cc21 [Amitriptyline-a-2-NB590]			NanoBRET Fold Response (tracer at 0.1μM): 1.19; NanoBRET Fold Response (tracer at 1μM): 1.46
Cc1cc2c(s1)Nc1ccccc1N=C2N1CCN(CCCNC(=O)CCOCCOCCOCCOCCNC(=O)CCc2ccc3n2[B-](F)(F)[N+]2=C(c4ccc[nH]4)C=CC2=C3)CC1 [Olanzapine-a-2-NB590]	1.26	1.98	
N#CN=C(NCCCOc1cccc(CN2CCCCC2)c1)NCCNC(=O)CCOCCOCCOCCOCCNC(=O)CCc1ccc2n1[B-](F)(F)[N+]1=C(c3ccc[nH]3)C=CC1=C2 [Aminopotentidine-2-NB590]	1.10	1.01	
CN(C)CCC=C1c2ccccc2CCc2ccc(C(=O)NCCNC(=O)CCOCCOCCOCCOCCNC(=O)CCc3ccc4n3[B-](F)(F)[N+]3=C(c5ccc[nH]5)C=CC3=C4)cc21 [Amitriptyline-b-2-NB590]			NanoBRET Fold Response (tracer at 0.1μM, listed as amitriptyline-b-2-NB590): 1.73; NanoBRET Fold Response (tracer at 1μM, listed as amitriptyline-b-2-NB590): 1.67
